According to patent US20240391862A1, “(1,4,5-TRISUBSTITUTED-1H-PYRAZOL-3-YL)OXY-2-ALKOXY ALKYL ACIDS AND THEIR DERIVATIVES, THEIR SALTS AND THEIR USE AS HERBICIDAL AGENTS” (Bayer AKtiengesellschaft, priority 2021, published 2024):

Tests used:
various unwanted plants = assay: Pre-emergence effect against various unwanted plants (PE): comparative test of I-01 with compounds from WO2020/245044 (Tables 40a, 40b) and summary statements; type: in vivo
Text: Seeds of monocotyledonous and dicotyledonous weed plants and crop plants are placed in plastic or organic planting pots and covered with soil. The compounds of the invention, formulated in the form of wettable powders (WP) or as emulsion concentrates (EC), are then applied to the surface of the covering soil as aqueous suspension or emulsion with addition of 0.5% additive at a water application rate equivalent to 600 l/ha. After the treatment, the pots are placed in a greenhouse and kept under good growth conditions for the trial plants. After about 3 weeks, the effect of the preparations is scored visually in comparison with untreated controls as percentages. For example, 100% activity=the plants have died, 0% activity=like control plants. Tables 40a and 40b below show the effects of the inventive compound (I-01) with structurally similar compounds (from WO2020/245044) on various harmful plants at an application rate corresponding to 320 g/ha or less, which have been obtained by the trial procedure specified hereinafter. The inventive compound (I-01) differs here by variance of a significant structural feature from the structurally similar compound with regard to the R^2 radical. Seeds of monocotyledonous and dicotyledonous weed plants and crop plants are placed in plastic or organic planting pots and covered with soil. The compounds of the invention, formulated in the form of wettable powders (WP) or as emulsion concentrates (EC), are then applied to the surface of the covering soil as aqueous suspension or emulsion with addition of 0.5% additive at a water application rate equivalent to 600 l/ha. After the treatment, the pots are placed in a greenhouse and kept under good growth conditions for the trial plants. After about 3 weeks, the effect of the preparations is scored visually in comparison with untreated controls as percentages. For example, 100% activity=the plants have died, 0% activity=like control plants. Effects/crop compatibilities of selected compounds (Table 39) on various harmful plants at an application rate corresponding to 80 to 320 g/ha that have been obtained by the trial procedure specified hereinabove are shown in Tables 40a and 40b below.

ABUTH = assay: Pre-emergence herbicidal effect, greenhouse pot test; type: in vivo, Abutilon theophrasti; details: 320 g/ha, scored visually after about 3 weeks vs untreated controls
Text: Seeds of monocotyledonous and dicotyledonous weed plants and crop plants are placed in plastic or organic planting pots and covered with soil. The compounds of the invention, formulated in the form of wettable powders (WP) or as emulsion concentrates (EC), are then applied to the surface of the covering soil as aqueous suspension or emulsion with addition of 0.5% additive at a water application rate equivalent to 600 l/ha. After the treatment, the pots are placed in a greenhouse and kept under good growth conditions for the trial plants. After about 3 weeks, the effect of the preparations is scored visually in comparison with untreated controls as percentages. For example, 100% activity=the plants have died, 0% activity=like control plants.
Tables 1a to 19c below show the effects/crop compatibilities of selected compounds of the general formula (I) on various harmful plants at an application rate corresponding to 20 to 320 g/ha, which were obtained by the trial procedure specified above.
• ALOMY: Alopecurus myosuroides SETVI: Setaria viridis • AVEFA: Avena fatua POLCO: Fallopia convolvulus • AMARE: Amaranthus retroflexus ECHCG: Echinochloa crus-galli • LOLRJ: Lolium rigidum STEME: Stellaria media • VERPE: Veronica persica MATIN: Tripleurospermum inodorum • DIGSA: Digitaria sanguinalis ABUTH: Abutylon threophrasti • TRZAS: Triticum aestivum VIOTR: Viola tricolor • BRSNW: Brassica napus ZEAMX: Zea mays • PHBPU: Ipomoea purpurea GLXMA: Glycine max • ORYSA: Oryza sativa HORMU: Hordeum murinum

Row | Compound | Pre-emergence effect, Effect %, ALOMY (various unwanted plants; ALOMY, 320 g/ha, comparative test) [%] | Pre-emergence effect, Effect %, ECHCG (various unwanted plants; 80 g/ha, comparative test) [%] | Pre-emergence effect, Effect %, ECHCG (various unwanted plants; 320 g/ha, comparative test) [%] | Pre-emergence effect, Effect %, LOLRI (various unwanted plants; 80 g/ha, comparative test) [%] | Pre-emergence effect, Effect %, LOLRI (various unwanted plants; 320 g/ha, comparative test) [%] | Pre-emergence effect, Effect %, MATIN (various unwanted plants; 80 g/ha, comparative test) [%] | Pre-emergence effect, Effect %, MATIN (various unwanted plants; 320 g/ha, comparative test) [%] | Pre-emergence effect, Effect %, POLCO (various unwanted plants; POLCO, 80 g/ha, comparative test) [%] | Pre-emergence effect, Effect %, SETVI (various unwanted plants; SETVI, 320 g/ha, comparative test) [%] | herbicidal efficacy by comparison to the structurally similar compounds (Tables 40a and 40b) (various unwanted plants; different harmful plants, 320 g or less per hectare, vs compounds from WO2020/245044) | Pre-emergence effect at 320 g/ha against ABUTH in % (ABUTH) [%]
1 | CCOC(=O)C(OCC)Oc1nn(-c2ccccc2F)c(-c2ccc(F)nc2)c1Br (racemic) [Example I-01, Ethyl (2RS)-{[4-bromo-1-(2-fluorophenyl)-5-(6-fluoropyridin-3-yl)-1H-pyrazol-3-yl]oxy}(ethoxy)acetate] | 90 | 70 | 100 | 90 | 100 | 90 | 90 | 80 | 100 | distinctly improved herbicidal efficacy | 
2 | COC(=O)C(OC)Oc1nn(-c2ccccc2F)c(-c2ccc(F)nc2)c1Br (racemic) [Example I-04, Methyl (2RS)-{[4-bromo-1-(2-fluorophenyl)-5-(6-fluoropyridin-3-yl)-1H-pyrazol-3-yl]oxy}(methoxy)acetate] |  |  |  |  |  |  |  |  |  |  | 80
